What was measured:
C56BL/6 mice = assay: Acute cholesterol absorption inhibition assay in mice; assay type: in vivo; details: [3H]-cholesterol counts in plasma 2 h after cholesterol, relative to vehicle control
Description: Accute Cholesterol Absorption Inhibition Assay in Mice
Compounds were added to a solution of 0.5% Methylcellulose (Sigma)/5% Solutol, BASF) or another suitable vehicle at a concentration of 0.1-1 mg/ml. C56BL/6 mice (n=3-6/group), aged 6-8 weeks were dosed orally with 0.1 ml of vehicle or 0.1 mL of vehicle containing the test compound (0.5-5 mg/kg) or ezetimibe (10 mg/kg) as positive control. Thirty minutes later all of the mice were dosed orally with 0.1 mL corn oil containing 2 μCi [^3H]-cholesterol per mouse. Two hours after administration of radiolabeled cholesterol, the animals were euthanized and blood collected. Cholesterol counts in plasma were determined, and percent inhibition of cholesterol absorption was calculated relative to the vehicle control.

[1] = Determination of absorption: unidirectional permeability assay (Cloe Screen, Cyprotex); assay type: in vitro ADME; details: human, Caco-2, apical side, cell monolayer, read-out: Papp in cm · s^−1
Description: It has further been shown that the compounds of the invention display the desired pharmacological activity by evaluation of their potency in vivo (in mice and hamsters). The bioavailability of the compounds of the present invention has been determined by unidirectional Caco2 Permeability measurement.
Determination of Absorption
The permeability of the compounds of the present invention was determined using the Cloe Screen® (unidirectional Cloe Screen […] permeability assay; Cyprotex) and is expressed by Papp (cm·s^−1). Caco-2 cells are widely used as an in vitro model for predicting human drug absorption. The Caco-2 cell line is derived from a human colorectal carcinoma, and when cultured, the cells spontaneously differentiate into monolayers of polarised enterocytes. The cells are typically seeded on Transwell™ plates and form a confluent monolayer over 20 days prior to the experiment. On day 20, the test compound is added to the apical side of the membrane and the transport of the compound across the monolayer is monitored over a 2 hour time period. The permeability coefficient (Papp) is calculated from the equation: Papp=(dQ/dt)/(C0xA), where (dQ/dt) is the rate of permeation of the drug across the cells, C0 is the donor compartment concentration at time zero and A is the area of the cell monolayer.

Syrian Golden Hamsters = assay: Long-term LDL lowering in Syrian Golden hamsters; assay type: in vivo; details: hamsters on high fat diet, dose 3 × 1 mg/kg/day, day 14, relative to vehicle control
Description: Long-Term LDL Lowering in Syrian Golden Hamsters
Groups of 6 male hamsters weighing 90±10 g are fed a high fat diet (g/100 g: corn oil, 5; coconut oil, 5; cholesterol, 0.2; standard chow, 89.8) for 7 days. Afterwards vehicle or test compounds (3-10 mg/kg bw/day) in a solution of 0.5% Methylcellulose, 5% Solutol or another suitable vehicle are administered at least three times daily for 14 consecutive days. Following an overnight fasting period, blood serum is obtained from the retro-orbital sinus of each animal on day 0 (7 days after initiating of the high fat diet) and on days 8 and 15 after dosing for 7 and 14 days. The serum is assayed for total cholesterol, LDL-cholesterol, HDL-cholesterol and triglycerides. The percent change of treated relative to the vehicle control group is determined.

Papp A→B at 2 h [1] | SMILES | Cholesterol Absorption Inhibition (%) (C56BL/6 mice; oral dose 1 mg/kg) | LDL reduction @ day 14 (%) (Syrian Golden Hamsters) | Cholesterol Absorption Inhibition (%) (C56BL/6 mice; oral dose 10 mg/kg (positive control))
1.68 ×10⁻⁶ cm/s | O=C(O)COC1(CCc2ccc([C@@H]3[C@@H](CC[C@H](O)c4ccc(F)cc4)C(=O)N3c3ccc(F)cc3)cc2)COC1 [Example 1, 2-(3-(4-((2S,3R)-1-(4-fluorophenyl)-3-((S)-3-(4-fluorophenyl)-3-hydroxypropyl)-4-oxoazetidin-2-yl)phenethyl)oxetan-3-yloxy)acetic acid] | 87% |  | 
0.57 ×10⁻⁶ cm/s | O=C(COC1(CCc2ccc([C@@H]3[C@@H](CC[C@H](O)c4ccc(F)cc4)C(=O)N3c3ccc(F)cc3)cc2)COC1)N[C@H](CO)C(=O)O [Example 34, (R)-2-(2-(3-(4-((2S,3R)-1-(4-fluorophenyl)-3-((S)-3-(4-fluorophenyl)-3-hydroxypropyl)-4-oxoazetidin-2-yl)phenethyl)oxetan-3-yloxy)acetamido)-3-hydroxypropanoic acid] |  | 76% | 
0.73 ×10⁻⁶ cm/s | O=C(COC1(CCc2ccc([C@@H]3[C@@H](CC[C@H](O)c4ccc(F)cc4)C(=O)N3c3ccc(F)cc3)cc2)COC1)NC1(C(=O)O)CCC1 [Example 35, 1-(2-(3-(4-((2S,3R)-1-(4-fluorophenyl)-3-((S)-3-(4-fluorophenyl)-3-hydroxypropyl)-4-oxoazetidin-2-yl)phenethyl)oxetan-3-yloxy)acetamido)cyclobutanecarboxylic acid] |  | 80% | 
0.92 ×10⁻⁶ cm/s | CC(C)[C@@H](NC(=O)COC1(CCc2ccc([C@@H]3[C@@H](CC[C@H](O)c4ccc(F)cc4)C(=O)N3c3ccc(F)cc3)cc2)COC1)C(=O)O [Example 39, (R)-2-(2-(3-(4-((2S,3R)-1-(4-fluorophenyl)-3-((S)-3-(4-fluorophenyl)-3-hydroxypropyl)-4-oxoazetidin-2-yl)phenethyl)oxetan-3-yloxy)acetamido)-3-methylbutanoic acid] | 82% | 74% | 

Further lines, the compound ahead of its results:

SMILES | Papp A→B at 2 h [1] | Cholesterol Absorption Inhibition (%) (C56BL/6 mice; oral dose 1 mg/kg) | LDL reduction @ day 14 (%) (Syrian Golden Hamsters) | Cholesterol Absorption Inhibition (%) (C56BL/6 mice; oral dose 10 mg/kg (positive control))
O=C(O)[C@H]1CCCN1C(=O)COC1(CCc2ccc([C@@H]3[C@@H](CC[C@H](O)c4ccc(F)cc4)C(=O)N3c3ccc(F)cc3)cc2)COC1 [Example 19, (R)-1-(2-(3-(4-((2S,3R)-1-(4-fluorophenyl)-3-((S)-3-(4-fluorophenyl)-3-hydroxypropyl)-4-oxoazetidin-2-yl)phenethyl)oxetan-3-yloxy)acetyl)pyrrolidine-2-carboxylic acid] | 0.14 ×10⁻⁶ cm/s | 83% |  | 
O=C(O)[C@@H]1CCCN1C(=O)COC1(CCc2ccc([C@@H]3[C@@H](CC[C@H](O)c4ccc(F)cc4)C(=O)N3c3ccc(F)cc3)cc2)COC1 [Example 20, (S)-1-(2-(3-(4-((2S,3R)-1-(4-fluorophenyl)-3-((S)-3-(4-fluorophenyl)-3-hydroxypropyl)-4-oxoazetidin-2-yl)phenethyl)oxetan-3-yloxy)acetyl)pyrrolidine-2-carboxylic acid] |  | 42% |  | 
NC(=O)[C@H]1CCCN1C(=O)COC1(CCc2ccc([C@@H]3[C@@H](CC[C@H](O)c4ccc(F)cc4)C(=O)N3c3ccc(F)cc3)cc2)COC1 [Example 22, (R)-1-(2-(3-(4-((2S,3R)-1-(4-fluorophenyl)-3-((S)-3-(4-fluorophenyl)-3-hydroxypropyl)-4-oxoazetidin-2-yl)phenethyl)oxetan-3-yloxy)acetyl)pyrrolidine-2-carboxamide] |  | 80% |  | 
O=C(O)C1CCCCN1C(=O)COC1(CCc2ccc([C@@H]3[C@@H](CC[C@H](O)c4ccc(F)cc4)C(=O)N3c3ccc(F)cc3)cc2)COC1 (stereo partly drawn) [Example 23, 1-(2-(3-(4-((2S,3R)-1-(4-fluorophenyl)-3-((S)-3-(4-fluorophenyl)-3-hydroxypropyl)-4-oxoazetidin-2-yl)phenethyl)oxetan-3-yloxy)acetyl)piperidine-2-carboxylic acid] |  | 73% |  | 
O=C(COC1(CCc2ccc([C@@H]3[C@@H](CC[C@H](O)c4ccc(F)cc4)C(=O)N3c3ccc(F)cc3)cc2)COC1)NCCS(=O)(=O)O [Example 28, 2-(2-(3-(4-((2S,3R)-1-(4-fluorophenyl)-3-((S)-3-(4-fluorophenyl)-3-hydroxypropyl)-4-oxoazetidin-2-yl)phenethyl)oxetan-3-yloxy)acetamido)ethanesulfonic acid] |  | 63% |  | 
O=C(COC1(CCc2ccc([C@@H]3[C@@H](CC[C@H](O)c4ccc(F)cc4)C(=O)N3c3ccc(F)cc3)cc2)COC1)NC(CO)(CO)CO [Example 46, N-(1,3-dihydroxy-2-(hydroxymethyl)propan-2-yl)-2-(3-(4-((2S,3R)-1-(4-fluorophenyl)-3-((S)-3-(4-fluorophenyl)-3-hydroxypropyl)-4-oxoazetidin-2-yl)phenethyl)oxetan-3-yloxy)acetamide] | 1.09 ×10⁻⁶ cm/s |  | 67% | 
O=C1[C@H](CC[C@H](O)c2ccc(F)cc2)[C@@H](c2ccc(O)cc2)N1c1ccc(F)cc1 [Ezetimibe, reference compound] | 46 ×10⁻⁶ cm/s |  |  | 87%

From patent publication US9212175B2, “Pharmaceutical hypocholesterolemic compositions” (Lipideon Biotechnology AG, priority 2009, dated 2015)
